Source: article PMC11003480, “Promising inhibition of diabetes-related enzymes and antioxidant properties of Ptilostemon casabonae leaves extract” (Journal of Enzyme Inhibition and Medicinal Chemistry, 2023)

Experiments:
[1] = target: Saccharomyces cerevisiae α-glucosidase; experiment: α-Glucosidase inhibition assay (pNPG substrate); format: biochemical; details: for α-Glucosidase Mode of inhibition: Lineweaver-Burk plot; for equilibrium constant for binding with the enzyme-substrate complex (KIS): from intercepts (1/Vmax) versus inhibitor concentration; for equilibrium constant for binding with the free enzyme (KI): from slope (Km/Vmax) versus inhibitor concentration
Experimental: The concentrations of extract required to give 50% inhibition of enzyme activity (IC50) were determined. […] The Lineweaver-Burk double reciprocal plot was used to determine the mode of α-glucosidase inhibition by performing assays at different concentrations of substrate and extract or compound. Grafit 7 (Erithacus, East Grinstead, UK) was used as data analysis software. α-Glucosidase inhibitory activity was analysed following the method described by Delogu et al.[15]. […] It was first incubated for 15 min at 37 °C. Then, 20 µL of p-nitrophenyl α-D-glucopyranoside solution (pNPG, 5 mM) was added. After further 15 min of incubation at 37 °C, the reaction was stopped by adding 50 μL of 0.2 M sodium carbonate solution. α-Glucosidase activity was determined with a 96-well microplate reader by measuring the absorbance at 405 nm. The mode of inhibition was determined, and the equilibrium constant for binding with the enzyme–substrate complex (KIS) was obtained from the vertical intercepts plotted versus inhibitor concentration.

[2] = tested on: Saccharomyces cerevisiae α-glucosidase; parameters: method as in PMID 25805337; details: cited from earlier work
[3] = Ferric reducing antioxidant power assay (FRAP); details: ferrous equivalents; 4 min, absorbance 593 nm
Experimental: Ferric reducing antioxidant power assay (FRAP) was conducted as previously described, with slight modifications. An amount of 10 µL of the extract was mixed with 2 ml of the TPTZ–ferric solution and than incubated for 4 min at room temperature in the dark. The absorbance was read at 593 nm and the result was expressed as ferrous equivalents (FE; mg Fe^2+ equivalents/mL solution). Ascorbic acid was used as reference compound.

[4] = ABTS radical scavenging activity; details: 50% reduction of absorbance at 734 nm after 1 min
Experimental: Briefly, the reaction between the reduced ABTS (7 mM) with potassium persulfate (2.45 mM) in an aqueous solution at room temperature for 24 h, was performed to produce free radical ABTS^.+. Then, different concentrations of extract (10 μL) were added to 1 ml of ABTS^.+, and the absorbance at 734 nm was recorded after 1 min. The activity was expressed as the concentration of sample necessary to give a 50% reduction in the original absorbance (EC50).

| α-Glucosidase IC50 [1] | α-Glucosidase Mode of inhibition [1] | equilibrium constant for binding with the enzyme-substrate complex (KIS) [1] | Compound | further results |
| --- | --- | --- | --- | --- |
| 36.64 ± 0.07 µg/mL | Uncompetitive | 69.4 µg/mL | O=C(/C=C/c1ccc(O)c(O)c1)O[C@@H]1C[C@](OC(=O)/C=C/c2ccc(O)c(O)c2)(C(=O)O)C[C@@H](O)[C@H]1O [1,5-Dicaffeoylquinic acid (9), 1,5-Dicaffeoylquinic acid] | – |
| – | – | – | O=C(/C=C/c1ccc(O)c(O)c1)O[C@@H]1CC(O)(C(=O)O)C[C@@H](OC(=O)/C=C/c2ccc(O)c(O)c2)C1O (stereo partly shown) [3,5-dicaffeoylquinic acid, 3,5-Dicaffeoylquinic acid] | α-glucosidase inhibition (in words) [2]: able to inhibit this enzyme |
| – | – | – | O=C(/C=C/c1ccc(O)c(O)c1)O[C@H]1[C@H](O)C[C@](O)(C(=O)O)C[C@H]1OC(=O)/C=C/c1ccc(O)c(O)c1 [4,5-dicaffeoylquinic acid] | α-glucosidase inhibition (in words) [2]: able to inhibit this enzyme |
| 3.88 ± 1.48 µg/mL | Mixed | 19.6 µg/mL | O=c1cc(-c2ccc(O)cc2)oc2cc(O)cc(O)c12 [Apigenin (23), Apigenin] | α-Glucosidase Mode of inhibition ([1]; listed as apigenin): mixed-type inhibition; equilibrium constant for binding with the free enzyme (KI) [1]: 6.5 µg/mL |
| – | – | – | O=C1O[C@H]([C@@H](O)CO)C(O)=C1O [Ascorbic acid] | FRAP [3]: 1.81 ± 0.13 mg FE/mL |
| 20.54 ± 4.45 µg/mL | Mixed | 80.2 µg/mL | C[C@@H]1O[C@@H](OC[C@H]2O[C@@H](Oc3c(-c4ccc(O)c(O)c4)oc4cc(O)cc(O)c4c3=O)[C@H](O)[C@@H](O)[C@@H]2O)[C@H](O)[C@H](O)[C@H]1O [Rutin (4), Quercetin 3-O-rutinoside (Rutin)] | α-Glucosidase Mode of inhibition ([1]; listed as rutin): mixed-type inhibition; equilibrium constant for binding with the free enzyme (KI) [1]: 9.3 µg/mL |
| – | – | – | Cc1c(C)c2c(c(C)c1O)CCC(C)(C(=O)O)O2 (stereo not shown) [Trolox, 6-hydroxy-2,5,7,8-tetramethylchromane-2-carboxylic acid] | ABTS EC50 [4]: 3.4 ± 0.3 µg/mL |

| Compound | α-Glucosidase IC50 [1] | α-Glucosidase Mode of inhibition [1] | equilibrium constant for binding with the enzyme-substrate complex (KIS) [1] | further results |
| --- | --- | --- | --- | --- |
| O=C(/C=C/c1ccc(O)c(O)c1)O[C@@H]1C[C@](O)(C(=O)O)C[C@@H](O)[C@H]1O [Chlorogenic acid (1), 5-O-Caffeoylquinic acid (Chlorogenic acid)] | >100 µg/mL | – | – | α-glucosidase inhibitory activity (in words) [1]: no inhibitory activity |
